Holding throughout (assay): NCI tumour cell line growth inhibition, 48 h
The subject of assay [1] is M14 melanoma.
Assay [2] concerns TK-10 renal.
Assay [3] deals with SK-MEL-28 melanoma.
The subject of assay [4] is DU-145 prostate.
Assay [5] has as its system MALME-3M melanoma.
The test system of assay [6] is 786-0 renal.
For assay [7], the system named is A549 NSCLC.
Assay [8] has as its system OVCAR-4 ovarian.
In assay [9] the test system is SW-620 colon.
The subject of assay [10] is CAKI-1 renal.

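Values below derive from 48-hour exposures of cells grown in 96-well plates, with endpoints linearly interpolated between the two concentrations bracketing the appropriate inhibition level. GI50 marks 50% less growth. TGI is the concentration that stops growth completely.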 A value given as a limit tells only on which side of the number the result lay.

The text below walks through data of PubChem BioAssay (NCI).

For the compound `COc1ccc(OC)c(Cn2cc3c(c2-c2ccccc2)CCc2cnoc2-3)c1`, the GI50 in assay [1] is 4.82 µM; in [2], 8.01 µM; in assay [3], 6.8 µM; in assay [4], 17.4 µM; in [5], 3.7 µM; in [6], 6.09 µM. The GI50 in [7] is 5.75 µM; in assay [8], 11.3 µM; in assay [9], 3.69 µM; in [10], 4.35 µM. Besides, the TGI in assay [1], in assay [2], in assay [3], in [4], in assay [5] and in assay [6] was > 100 µM each time. Also, the TGI in assay [7], in assay [8], in assay [9] and in [10] was > 100 µM in each case.

`CC(=O)O[C@H]1CCc2c(cc(N)c3c2C(=O)C[C@]2(C)C([C@H](C)CCCC(C)C)CCC32C)C1(C)C` (stereo partly drawn): the TGI in assay [1], in assay [2], in [3], in assay [4], in assay [5] and in assay [6] was > 100 µM each time. The TGI in [7], in assay [8], in assay [9] and in [10] was > 100 µM in each case.

For the compound `N#Cc1ccc(NC(=O)C(CC(=O)OCc2ccccc2)NC(=O)OCc2ccccc2)cc1` (stereo not drawn), the GI50 in [1], in [2], in assay [3], in assay [6], in [7] and in assay [8] was > 100 µM each time. For the same compound, the GI50 in [9] and in [10] was > 100 µM throughout. Besides, the TGI in assay [1], in [2], in assay [3], in [4], in assay [5] and in [6] was > 100 µM throughout. The TGI in assay [7], in assay [8], in [9] and in assay [10] was > 100 µM throughout.

On to `COC(=O)C(/C(=N\O)C(=O)Nc1cccc(Cl)c1C)c1cnc2ccccc2n1` (stereo not drawn), for which the TGI in [1], in assay [2], in [3], in [4], in [5] and in assay [6] was > 100 µM throughout. Also, the TGI in assay [7], in [8], in assay [9] and in [10] was > 100 µM in each case.

Take `O=c1c(F)cn(Cc2ccccc2CCl)c(=O)n1Cc1ccccc1CCl`: the GI50 in assay [1] was 1.69 µM; in [2], 2.15 µM; in assay [3], 1.4 µM; in assay [4], 1.79 µM; in assay [5] it was 2.2 µM; in assay [6], 2.09 µM. Moreover, the GI50 in assay [7] was 1.83 µM; in assay [8], 3.5 µM; in [9] it was 1.45 µM; in assay [10] it was 1.71 µM. In addition, the TGI in assay [1] is 4.05 µM; in assay [2], 5.44 µM; in assay [3] it was 3.32 µM; in assay [4], 3.42 µM; in assay [5], 4.59 µM; in assay [6], 4.44 µM. For the same compound, the TGI was determined as 4.29 µM in assay [7], 12.8 µM in [8], 3.73 µM in assay [9] and 3.58 µM in [10].

Consider `CNC(=O)c1nn(C)c2c1C(C)(C)Cc1cnc(Nc3ccc(N4CCN(C)CC4)cc3)nc1-2`, for which the GI50 is 0.248 µM in [1]; 0.116 µM in [2]; 2.32 µM in assay [3]; 0.995 µM in assay [4]; 0.431 µM in [5]; 0.649 µM in assay [6]. For the same compound, the GI50 is 0.682 µM in assay [7], 0.683 µM in [8], 0.608 µM in [9] and 0.114 µM in assay [10]. In addition, the TGI is > 8.53 µM in assay [1]; > 10 µM in [2]; > 10 µM in assay [3]; > 10 µM in assay [4]; > 9.24 µM in assay [5]; > 10 µM in [6]. The TGI in [7] is > 10 µM; in assay [8], > 8.34 µM; in assay [9], > 10 µM; in assay [10], 1.22 µM.

For `c1c[nH]c(CN2CCOCC2)n1`, the TGI in assay [1], in assay [2], in assay [3], in assay [4], in assay [5] and in assay [6] was > 100 µM each time. Also, the TGI in assay [7], in assay [8], in [9] and in [10] was > 100 µM each time.

For the compound `O=C(O)[C@H](c1ccccc1)[C@@H](C(=O)O)c1ccccc1`, the TGI in assay [1], in assay [2], in assay [3], in assay [4], in [5] and in assay [6] was > 100 µM each time. For the same compound, the TGI in [7], in assay [8], in assay [9] and in [10] was > 100 µM each time.

Consider `CCOC(=O)/C(C#N)=C\C=C(/Cl)c1ccc(Cl)cc1`, for which the GI50 in [1] was 14.8 µM; in assay [2], 16.2 µM; in [3] it was 15.5 µM; in assay [4], 12.9 µM; in assay [5], 18.6 µM; in assay [6] it was 19.4 µM. Besides, the GI50 in assay [7] was 30.4 µM; in [8], 27.8 µM; in assay [9] it was 5.94 µM; in assay [10], 5.74 µM. Besides, the TGI is 31.4 µM in assay [1]; 35.2 µM in [2]; 32.3 µM in assay [3]; 25.5 µM in assay [4]; 40.5 µM in [5]; 37.4 µM in assay [6]. For the same compound, the TGI is 90.4 µM in [7], > 76.4 µM in [8], 26.3 µM in assay [9] and 22.5 µM in assay [10].
